Measurements reported in patent US11801238B2, “Anti-viral activity of VPS34 inhibitors” (priority 2020, dated 2023).
pIC50: −log10 of the molar value.

Legend:
[1] = Compound cytotoxicity (CC50) counter screen, Cell Titer-Glo; assay type: cell-based; conditions: African green monkey, Example 5, Vero E6 cells, read-out: CC50 (general cytotoxic effects)
Protocol: Compound cytotoxicity (CC50) is assessed in a BSL-2 counter screen as follows: Host cells in media are added in 25 μl aliquots (4000 cells/well) to each well of assay ready plates prepared with test compounds as above. Cells only (100% viability) and cells treated with hyamine at 100 μM final concentration (0% viability) serve as the high and low signal controls, respectively, for cytotoxic effect in the assay. DMSO is maintained at a constant concentration for all wells (0.3%) as dictated by the dilution factor of stock test compound concentrations. After incubating plates at 37° C./5% CO2 and 90% humidity for 72 hours, 30 μl Cell Titer-Glo (Promega) is added to each well. Luminescence is read using a BMG PHERAstar plate reader following incubation at room temperature for 10 minutes to measure cell viability.

SARS CoV-2 [2] = assay: SARS CoV-2 CPE assay for antiviral activity in Vero E6 host cells; assay type: cell-based; conditions: read-out: IC50 for inhibition of SARS CoV-2 mediated cell killing
SARS CoV-2 [3] = assay: microbe, parasite or virus in culture; assay type: cell-based; conditions: Severe acute respiratory syndrome coronavirus 2, A549, 48 h; read-out: IC50 for inhibition of SARS CoV-2 mediated cell killing
in vitro = conditions: human
[4] = Vero C1008, CPE assay, Vero E6 cells, USA_WA1/2020 SARS CoV-2, 72 hours, 10-point dose response (high concentration 15 μM)

| Compound | CC50 at 72 h [1] [nM] | pIC50 (SARS CoV-2 [2]; [4]) | pIC50 (SARS CoV-2 [3]) | CC50 (in vitro) [nM] | pIC50 (SARS CoV-2 [2]; Vero C1008, 72 h) |
| --- | --- | --- | --- | --- | --- |
| COC(=O)Nc1cc(-c2cc(-c3ccccc3C(F)(F)F)[nH]c(=O)c2)ccn1 [Compound 1] | > 30000 | 6.92 | 7.05 | 17000 |  |
| CC(=O)Nc1cc(-c2cc(-c3cccnc3C(F)(F)F)[nH]c(=O)c2)ccn1 [Compound 2] | > 30000 | 5.63 | 6.33 | > 30000 |  |
| COC(=O)Nc1cc(-c2cc(-c3cccnc3C(F)(F)F)[nH]c(=O)c2)ccn1 [Compound 3] | > 30000 | 6.47 | 6.72 | > 30000 |  |
| COC(=O)Nc1cc(-c2cc(N3CCOCC3C(F)(F)F)[nH]c(=O)c2)ccn1 (stereo not shown) [Compound 4] | 8260 |  | 7.17 | 2400 | 6.68 |
